Measurements reported in PMC6095626, “Screening of the Pathogen Box for inhibitors with dual efficacy against Giardia lamblia and Cryptosporidium parvum” (PLoS Neglected Tropical Diseases, 2018).
“Also recorded” adds a separate entry of the source.

Key:
[1] = tested on: G. lamblia trophozoites (luciferase expressing, WBC6); assay: microbe, parasite or virus in culture; assay type: cell-based, Giardia lamblia; conditions: for Giardia (16 uM) Mean % inhibition: initial Pathogen Box screen, single concentration 16 µM, inhibition compared to DMSO wells
Outline: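 Incubation ran 24 h at 37 °C under anaerobic conditions, with compound added in equal volume to trophozoites (WBC6, luciferase-expressing, 250,000 cells/mL). Bioluminescence was the read-out, cross-checked by MOXI Z counts on a duplicate plate; metronidazole served as control (1:2 dilutions from 40 μM).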

[2] = tested on: C. parvum (UGA1 Nluc expressing strain in HCT-8 cells); assay: microbe, parasite or virus in culture; assay type: cell-based, Cryptosporidium parvum; conditions: for Crypto (10 uM) Mean % inhibition: initial Pathogen Box screen, single concentration 10 µM, inhibition compared to DMSO wells; for EC50: Nluc C. parvum in HCT-8 cells, read-out: C. parvum EC50
Outline: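 Parasite growth quantified by NanoLuc luminescence from lysed infected HCT-8 cells, with EC50 fitted from dose curves. Compounds, single-dose 10 μM or serially diluted, were added to confluent 48 h monolayers before infection with bleached UGA1 Nluc oocysts.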

Structure (SMILES) | Giardia (16 uM) Mean % inhibition [1] | Crypto (10 uM) Mean % inhibition [2] | C. parvum cell growth inhibition in the initial screen ([2]; 10 μM, 48 hours) [%] | EC50 ([2]; 48 hours) [nM] | G. lamblia EC50 ([1]; luciferase expressing G. lamblia trophozoites, 24 hours, D-luciferin bioluminescence read-out)
CCCNC(=O)N1CCC2(CC1)CC(=O)c1cc(C)ccc1O2 [MMV085230] | 63% | 62% | – | – | –
O=C1COCc2ccc(Br)cc2N1Cc1ccc(C(F)(F)F)cc1 [MMV032995] | 38% | 41% | – | – | –
Cc1cc(C(=O)Nc2ccc(-c3ccccc3)cc2)no1 [MMV020152] | 43% | X* (Mean or standard deviation are negative but not significantly different from the control to be a growth promoter) | – | – | –
N=C(N)Nc1ccc(-c2ccc(-c3ccc(N=C(N)N)c(Cl)c3)o2)cc1Cl [MMV688271] | 53% | 86% | – | – | –
O=C(C1CCN(c2nnc(-n3cccc3)s2)CC1)N1CCC(Cc2ccccc2)CC1 [MMV676478] | 9% | X* (Mean or standard deviation are negative but not significantly different from the control to be a growth promoter) | – | – | –
CCOC(=O)NC(=O)c1ccsc1NC(=O)c1nc2ccccc2s1 [MMV090930] | 18% | 59% | – | – | –
CC(C(=O)Nc1ccc2oc(-c3ccncc3)nc2c1)c1ccccc1 (stereo not drawn) [MMV688471] | 19% | X* (Mean or standard deviation are negative but not significantly different from the control to be a growth promoter) | – | – | –
O=C(CCC1CCCCC1)Nc1cccc(-c2nnc(-c3ccco3)o2)c1 [MMV676589] | 40% | 42% | – | – | –
COc1cccc(-c2nc3c(N4CCCC4)cccc3n2CC2CCCN2)n1 (stereo not drawn) [MMV687703] | 26% | 77% | – | – | –
Cc1ccc2cc(C3NC(=O)c4ccccc4N3)c(Cl)nc2c1 (stereo not drawn) [MMV019807] | 24% | 79% | – | – | –
O=C(NCCc1ccccc1)c1cc(-c2cccnc2)cnc1NCC1CC1 [MMV026490] | 12% | X* (Mean or standard deviation are negative but not significantly different from the control to be a growth promoter) | – | – | –
CCOC(=O)c1cc(-c2csc(Nc3c(C)cc(C)cc3C)n2)on1 [MMV676461] | 31% | 76% | – | – | –
CCc1c(C)nc(-n2nc(C)cc2NC(=O)c2ccccc2SC)[nH]c1=O [MMV676477] | 28% | 96% | ≥ 95 | 220 | –
CC(C)(C)n1nc(Cc2ccc(F)c(Cl)c2)c2c(N)ncnc21 [MMV688852] | 27% | 80% | – | – | –
CC(=O)N1CCN(c2ccc(Oc3ccc(Cl)cc3O)cc2)CC1 [MMV688330] | X* (Mean or standard deviation are negative but not significantly different from the control to be a growth promoter) | 56% | – | – | –
CCCCCCCCCCCCCCCCOP(=O)([O-])OCC[N+](C)(C)C [MMV688990] | X* (Mean or standard deviation are negative but not significantly different from the control to be a growth promoter) | X* (Mean or standard deviation are negative but not significantly different from the control to be a growth promoter) | – | – | –
CCCCS(=O)(=O)Nc1ccc2cnn(C)c2c1 [MMV687145] | 56% | 32% | – | – | –

Structure (SMILES) | Giardia (16 uM) Mean % inhibition [1] | Crypto (10 uM) Mean % inhibition [2] | C. parvum cell growth inhibition in the initial screen ([2]; 10 μM, 48 hours) [%] | EC50 ([2]; 48 hours) [nM] | G. lamblia EC50 ([1]; luciferase expressing G. lamblia trophozoites, 24 hours, D-luciferin bioluminescence read-out)
CNC(=O)c1nn(C)c2c1C(C)(C)Cc1cnc(Nc3ccc(N4CCN(C)CC4)cc3)nc1-2 [MMV676602] | 94% | 85% | – | 310 | not effective; also recorded: not potent
COc1ccc2nc(C)cc(OCC(=O)NCc3ccccc3)c2c1 [MMV687189] | 16% | 23% | – | – | –
COc1cccc(-n2nnnc2S(C)(=O)=O)c1 [MMV272144] | X* (Mean or standard deviation are negative but not significantly different from the control to be a growth promoter) | X* (Mean or standard deviation are negative but not significantly different from the control to be a growth promoter) | – | – | –
O=C(C(Cc1c[nH]c2ccccc12)NS(=O)(=O)c1ccc(Cl)cc1)N1CCCCC1 (stereo not drawn) [MMV085210] | X* (Mean or standard deviation are negative but not significantly different from the control to be a growth promoter) | X* (Mean or standard deviation are negative but not significantly different from the control to be a growth promoter) | – | – | –
CCCCN(CCCC)c1c(C#N)cc(S(=O)(=O)Nc2ccccc2)cc1C#N [MMV688467] | 60% | X* (Mean or standard deviation are negative but not significantly different from the control to be a growth promoter) | – | – | –
O=C(Nc1ccccc1)c1ccc(-c2cc3ccncc3cc2OC2CCNCC2)s1 [MMV024035] | 66% | 27% | – | – | –
CN1CCN(S(=O)(=O)c2ccc(-c3ccc4c(Nc5ccc6n[nH]nc6c5)ccnc4c3)cc2)CC1 [MMV687246] | 30% | X* (Mean or standard deviation are negative but not significantly different from the control to be a growth promoter) | – | – | –
COc1ccc(C2=NN(C3CCCCCC3)C(=O)C2(C)C)cc1OCCCCOc1ccc(-c2nn[nH]n2)cc1 [MMV690028] | 70% | 61% | – | – | –
Cc1ccc(NC(=O)c2cc(S(=O)(=O)NC(C)(C)C)ccc2C)nc1 [MMV020289] | 26% | X* (Mean or standard deviation are negative but not significantly different from the control to be a growth promoter) | – | – | –
CCc1ccccc1-n1c(C)cn2c3c(=O)n(C(C(=O)OC)C(C)C)c(=O)n(C)c3nc12 (stereo not drawn) [MMV688550] | X* (Mean or standard deviation are negative but not significantly different from the control to be a growth promoter) | 58% | – | – | –
CO/C=C(\C(=O)OC)c1ccccc1Oc1cc(Oc2ccccc2C#N)ncn1 [MMV021057] | 3.75% | 51% | – | – | –
N=C(N)c1ccc(-c2cc(-c3ccccc3)on2)cc1 [MMV688514] | 36% | 79% | – | – | –
COc1cc(C2=NCCN2)ccc1-c1cn(-c2cccc(C3=NCCN3)c2)nn1 [MMV688407] | 50% | X* (Mean or standard deviation are negative but not significantly different from the control to be a growth promoter) | – | – | –
O=C(NC1CC1)c1ccc(CSCc2ccccc2Cl)o1 [MMV007803] | 6% | X* (Mean or standard deviation are negative but not significantly different from the control to be a growth promoter) | – | – | –
CCCn1c(NC(=O)c2ccc3ccccc3n2)nc2ccccc21 [MMV1030799] | 13% | 81% | – | – | –
COc1cc(OC)cc(C(=O)NCC2Cc3cc(Cl)cc(-c4ccncc4)c3O2)c1 (stereo not drawn) [MMV007471] | 23% | 50% | – | – | –
CCC(Sc1nc2ccccc2o1)C(=O)Nc1nnc(C)s1 (stereo not drawn) [MMV611037] | 46% | X* (Mean or standard deviation are negative but not significantly different from the control to be a growth promoter) | – | – | –
